Measurements as given in patent US20260109690A1, “HDAC6 INHIBITORS AND METHOD OF THEIR USE” (Baerenkraft Therapeutics, LLC., priority 2024, published 2026).

Experiments:
[1] = target: T1, HDAC10 (Homo sapiens, UniProt Q969S8); experiment: HDAC selectivity panel: HDAC10; format: biochemical
T1 sequence (Q969S8 1-669): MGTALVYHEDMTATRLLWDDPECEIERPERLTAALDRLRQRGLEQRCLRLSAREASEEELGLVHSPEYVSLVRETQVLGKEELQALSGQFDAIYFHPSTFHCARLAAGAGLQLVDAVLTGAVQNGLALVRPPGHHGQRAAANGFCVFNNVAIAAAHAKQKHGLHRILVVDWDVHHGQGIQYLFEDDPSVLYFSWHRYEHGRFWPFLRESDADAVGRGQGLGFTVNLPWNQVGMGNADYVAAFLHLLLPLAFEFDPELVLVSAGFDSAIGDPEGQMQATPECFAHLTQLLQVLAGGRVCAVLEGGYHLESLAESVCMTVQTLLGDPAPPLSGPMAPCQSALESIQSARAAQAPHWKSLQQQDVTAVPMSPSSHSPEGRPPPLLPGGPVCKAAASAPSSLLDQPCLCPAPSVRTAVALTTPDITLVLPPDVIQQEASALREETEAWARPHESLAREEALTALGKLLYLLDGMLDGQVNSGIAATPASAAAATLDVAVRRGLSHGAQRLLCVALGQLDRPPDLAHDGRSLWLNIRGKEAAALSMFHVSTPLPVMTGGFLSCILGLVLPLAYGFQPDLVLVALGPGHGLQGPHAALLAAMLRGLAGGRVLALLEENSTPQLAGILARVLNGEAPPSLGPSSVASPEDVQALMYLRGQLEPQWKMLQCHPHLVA

[2] = test system: B6SJL.SOD1-G93A transgenic mouse model of amyotrophic lateral sclerosis; experiment: ALS mouse model: wire suspension test (inverted screen test); format: in vivo, mice
Protocol: Wire hang test was used to measure the muscle strength of animals. During the test, the animals were placed on the top of a wire lid of a housing cage. Then the lid was inverted and slightly shaken to ensure the grip of animal on the lid. Latency to fall(s) off the lid was recorded. A total of 3 trials were recorded and averaged to analyze the data. A cutoff time of 90 s was used to end the trial.
(§1) Note: Behavioral tests were performed once in two weeks, i.e. at week 10, 12, 14 and 16.

[3] = test system: B6SJL.SOD1-G93A transgenic mouse model of amyotrophic lateral sclerosis; experiment: ALS mouse model: beam walk test; format: in vivo, mice
From the text: Beam walk test was used for the assessment of motor coordination or balance of animals. The beam apparatus consisted of 1-meter beams with a flat surface of 6 mm width resting 50 cm above the tabletop on two poles. Animals were placed at one end of the beam, allowed to traverse the beam and reach another end with a cage filled with the home cage bedding. Animals were trained on beams for 2 consecutive days, 3 trials per day with 30 s inter-trial interval. On day 3 (day of test), animals were tested on the beam. A total 3 trials were performed, and time taken to traverse the beam & number of slips were recorded, average data was analyzed. For animals unable to traverse the beam, a cutoff time of 60 s was assigned.
Note: Number of slips were recorded until week 12 due to disease progression after that.
as §1

[4] = test system: B6SJL.SOD1-G93A transgenic mouse model of amyotrophic lateral sclerosis; experiment: ALS mouse model: neurological scoring; format: in vivo, mice; conditions: scale of 4-0
Protocol: At week 9, animals were treated either with vehicle or compound I-8 per orally Q.D. Animals were scored (twice in a week until week 12 and every day thereafter until termination) for motor impairment using Vercelli neurological scoring system at the scale of 4-0. Animals were subjected to different tests for motor coordination and muscle strength assessment once in two weeks.
Animals were scored for motor deficits using the scoring system: • 4—Normal/no sign of motor dysfunction • 3—Presence of hindlimb tremors when suspended by tail • 2—Presence of gait abnormalities • […]—Dragging at least one hindlimb • Absence of right reflex within 30 seconds
Animals were scored twice a week from initiation of treatment until week 12 and everyday thereafter until termination.

[5] = G4 30 mg/kg (50 mg/kg from day 34) p.o. QD, Week 10
[6] = G4 30 mg/kg (50 mg/kg from day 34) p.o. QD, Week 12
[7] = G4 30 mg/kg (50 mg/kg from day 34) p.o. QD, Week 14

SMILES: CC1CN(Cc2ccc(Nc3nccc(-c4ccc(C(=O)NO)cc4)n3)cc2F)CCO1 (racemic) [Compound I-8, 4-(2-((3-fluoro-4-((2-methylmorpholino)methyl)phenyl)amino)pyrimidin-4-yl)-N-hydroxybenzamide]
- IC50 [1]: 9.15 nM
- Wire Suspension test latency to fall ([2]; G3 15 mg/kg p.o. QD, Week 10): 49.70 ± 8.667 s
- Wire Suspension test latency to fall ([2]; G3 15 mg/kg p.o. QD, Week 12): 37.48 ± 9.92 s
- Wire Suspension test latency to fall ([2]; G3 15 mg/kg p.o. QD, Week 14): 19.22 ± 7.18 ^ seconds
- Wire Suspension test latency to fall ([2]; G3 15 mg/kg p.o. QD, Week 16): 3.71 ± 0.73 s
- latency to fall of the wire vs. G2 ([2]; G3 15 mg/kg, week 14): significant reduction in latency to fall of the wire
- Wire Suspension test latency to fall [2, 5]: 60.38 ± 10.00 s
- Wire Suspension test latency to fall [2, 6]: 45.46 ± 7.98 s
- Wire Suspension test latency to fall [2, 7]: 28.13 ± 5.38 ^ seconds
- Wire Suspension test latency to fall ([2]; G4 30 mg/kg (50 mg/kg from day 34) p.o. QD, Week 16): 6.46 ± 1.58 s
- latency to fall of the wire vs. G2 ([2]; G4, week 14): significant reduction in latency to fall of the wire
- Beam Walk Test- Latency to traverse the beam ([3]; G3 15 mg/kg p.o. QD, Week 10): 21.37 ± 5.99 s
- Beam Walk Test: Number of Slips ([3]; G3 15 mg/kg p.o. QD, Week 10): 1.42 ± 0.14
- Beam Walk Test- Latency to traverse the beam ([3]; G3 15 mg/kg p.o. QD, Week 12): 25.96 ± 5.59 s
- Beam Walk Test: Number of Slips ([3]; G3 15 mg/kg p.o. QD, Week 12): 0.93 ± 0.19
- Beam Walk Test- Latency to traverse the beam ([3]; G3 15 mg/kg p.o. QD, Week 14): 20.52 ± 6.85 s
- Beam Walk Test- Latency to traverse the beam ([3]; G3 15 mg/kg p.o. QD, Week 16): 58.21 ± 1.79 s
- Beam Walk Test- Latency to traverse the beam [3, 5]: 17.04 ± 5.71 s
- Beam Walk Test- Latency to traverse the beam [3, 6]: 29.83 ± 6.82 s
- Beam Walk Test- Latency to traverse the beam [3, 7]: 25.29 ± 7.64 s
- Beam Walk Test- Latency to traverse the beam ([3]; G4 30 mg/kg (50 mg/kg from day 34) p.o. QD, Week 16, cutoff time 60 s): 60 ± 0 s
- Beam Walk Test: Number of Slips ([3]; G4 30 mg/kg p.o. QD, Week 10): 1.33 ± 0.40
- Beam Walk Test: Number of Slips ([3]; G4 30 mg/kg p.o. QD, Week 12): 1.38 ± 0.34
- latency to traverse the beam vs. G2 ([3]; G4, week 10): significant reduction in latency to traverse the beam
- motor balance compared to G2, disease control group ([3]; G4, week 10): significant improvement was observed in motor balance
- Neurological scoring ([4]; G3 15 mg/kg p.o. QD, Day 1): 4 ± 0
- Neurological scoring ([4]; G3 15 mg/kg p.o. QD, Day 7): 4 ± 0
- Neurological scoring ([4]; G3 15 mg/kg p.o. QD, Day 13): 3.89 ± 0.11
- Neurological scoring ([4]; G3 15 mg/kg p.o. QD, Day 21): 3.44 ± 0.18
- Neurological scoring ([4]; G3 15 mg/kg p.o. QD, Day 28): 3.11 ± 0.26
- Neurological scoring ([4]; G3 15 mg/kg p.o. QD, Day 35): 2.22 ± 0.22
- Neurological scoring ([4]; G3 15 mg/kg p.o. QD, Day 42): 2.11 ± 0.20
- Neurological scoring ([4]; G3 15 mg/kg p.o. QD, Day 49): 1.89 ± 0.20
- Neurological scoring ([4]; G3 15 mg/kg p.o. QD, Day 52): 1.56 ± 0.29
- Neurological scoring ([4]; G4 30 mg/kg (50 mg/kg from day 34) p.o. QD, Day 1): 4 ± 0
- Neurological scoring ([4]; G4 30 mg/kg (50 mg/kg from day 34) p.o. QD, Day 7): 4 ± 0
- Neurological scoring ([4]; G4 30 mg/kg (50 mg/kg from day 34) p.o. QD, Day 13): 3.75 ± 0.16
- Neurological scoring ([4]; G4 30 mg/kg (50 mg/kg from day 34) p.o. QD, Day 21): 3.5 ± 0.19
- Neurological scoring ([4]; G4 30 mg/kg (50 mg/kg from day 34) p.o. QD, Day 28): 3 ± 0.27
- Neurological scoring ([4]; G4 30 mg/kg (50 mg/kg from day 34) p.o. QD, Day 35): 2.25 ± 0.25
- Neurological scoring ([4]; G4 30 mg/kg (50 mg/kg from day 34) p.o. QD, Day 42): 2.13 ± 0.23
- Neurological scoring ([4]; G4 30 mg/kg (50 mg/kg from day 34) p.o. QD, Day 49): 1.88 ± 0.30
- Neurological scoring ([4]; G4 30 mg/kg (50 mg/kg from day 34) p.o. QD, Day 52 (n = 6-8)): 2 ± 0.26
